Values quoted from earlier work, collected in article PMC7395068, “The evolution of strategies to minimise the risk of human drug-induced liver injury (DILI) in drug discovery and development” (Archives of Toxicology, 2020).
Where two headings read alike, the source gives them in different places.

Details: cited from earlier work
[1] = binary in vivo DILI call given beside the severity category, ref Chen 2016
[2] = human DILI concern category (LTKB DILIrank), ref Chen 2016

For `CCOC(=O)[C@H](CCc1ccccc1)N[C@@H](C)C(=O)N1[C@H](C(=O)O)C[C@@H]2CCC[C@@H]21` [ramipril], the “DILI +VE (5-8), DILI -VE (-4)” value (in vivo) is listed as “+VE” and the DILI severity category (in vivo) is listed as “vLess-DILI-Concern”.
For `C#CCN[C@@H]1CCc2ccccc21` [rasagiline], the “DILI +VE (5-8), DILI -VE (-4)” value [1] is listed as “-VE” and the DILI severity category [2] is listed as “Ambiguous DILI-concern”.
In the case of `CNC(=O)c1cnn(-c2nc(N)c3ncn([C@@H]4O[C@H](CO)[C@@H](O)[C@H]4O)c3n2)c1` [regadenoson], the “DILI +VE (5-8), DILI -VE (-4)” value (in vivo) is listed as “-VE” and the DILI severity category (in vivo) is listed as “vNo-DILI-Concern”.
For `CCOc1cc(CC(=O)N[C@@H](CC(C)C)c2ccccc2N2CCCCC2)ccc1C(=O)O` [repaglinide], the “DILI +VE (5-8), DILI -VE (-4)” value [1] is listed as “+VE” and the DILI severity category [2] is listed as “vLess-DILI-Concern”.
For `COC(=O)[C@H]1[C@H]2C[C@@H]3c4[nH]c5cc(OC)ccc5c4CCN3C[C@H]2C[C@@H](OC(=O)c2cc(OC)c(OC)c(OC)c2)[C@@H]1OC` [reserpine], the “DILI +VE (5-8), DILI -VE (-4)” value [1] is given as “-VE” and the DILI severity category [2] is given as “vNo-DILI-Concern”.
For `CO[C@H]1/C=C/O[C@@]2(C)Oc3c(C)c(O)c4c(c3C2=O)C2=NC3(CCN(CC(C)C)CC3)NC2=C(NC(=O)/C(C)=C\C=C\[C@H](C)[C@H](O)[C@@H](C)[C@@H](O)[C@@H](C)[C@H](OC(C)=O)[C@@H]1C)C4=O` [rifabutin], the “DILI +VE (5-8), DILI -VE (-4)” value [1] is given as “+VE” and the DILI severity category [2] is given as “vLess-DILI-Concern”.
In the case of `CC(N)C12CC3CC(CC(C3)C1)C2` (stereo not shown) [rimantadine], the “DILI +VE (5-8), DILI -VE (-4)” value [1] is listed as “-VE” and the DILI severity category [2] is listed as “vNo-DILI-Concern”.
For `CCN(C)C(=O)Oc1cccc([C@H](C)N(C)C)c1` [rivastigmine], the “DILI +VE (5-8), DILI -VE (-4)” value [1] is given as “+VE” and the DILI severity category [2] is given as “vLess-DILI-Concern”.
In the case of `CN(C)CCc1c[nH]c2ccc(Cn3cncn3)cc12` [rizatriptan], the “DILI +VE (5-8), DILI -VE (-4)” value [1] is listed as “-VE” and the DILI severity category [2] is listed as “vNo-DILI-Concern”.
In the case of `C=CC[N+]1([C@H]2C[C@H]3[C@@H]4CC[C@H]5C[C@H](O)[C@@H](N6CCOCC6)C[C@]5(C)[C@H]4CC[C@]3(C)[C@H]2OC(C)=O)CCCC1` [rocuronium], the “DILI +VE (5-8), DILI -VE (-4)” value (in vivo) is given as “-VE” and the DILI severity category (in vivo) is given as “vNo-DILI-Concern”.
For `CCCN(CCC)CCc1cccc2c1CC(=O)N2` [ropinirole], the “DILI +VE (5-8), DILI -VE (-4)” value [1] is given as “+VE” and the DILI severity category [2] is given as “vLess-DILI-Concern”.
In the case of `CC(C)(C)NCC(O)c1ccc(O)c(CO)c1` (stereo not shown) [salbutamol], the “DILI +VE (5-8), DILI -VE (-4)” value [1] is listed as “-VE” and the DILI severity category [2] is listed as “vNo-DILI-Concern”.
In the case of `O=C(Oc1ccccc1C(=O)O)c1ccccc1O` [salsalate], the “DILI +VE (5-8), DILI -VE (-4)” value [1] is given as “+VE” and the DILI severity category [2] is given as “vLess-DILI-Concern”.
In the case of `C=CCC1(C(C)CCC)C(=O)NC(=O)NC1=O` (stereo not shown) [secobarbital], the “DILI +VE (5-8), DILI -VE (-4)” value [1] is given as “-VE” and the DILI severity category [2] is given as “Ambiguous DILI-concern”.
For `CC(C)CC(N(C)C)C1(c2ccc(Cl)cc2)CCC1` (stereo not shown) [sibutramine], the “DILI +VE (5-8), DILI -VE (-4)” value (in vivo) is listed as “+VE” and the DILI severity category (in vivo) is listed as “vLess-DILI-Concern”.
For `C[C@H](Cc1cc2c(c(C(N)=O)c1)N(CCCO)CC2)NCCOc1ccccc1OCC(F)(F)F` [silodosin], the “DILI +VE (5-8), DILI -VE (-4)” value [1] is given as “-VE” and the DILI severity category [2] is given as “Ambiguous DILI-concern”.
For `CSCC[C@H](NC(=O)[C@H](Cc1ccc(OS(=O)(=O)O)cc1)NC(=O)[C@@H](N)CC(=O)O)C(=O)NCC(=O)N[C@@H](Cc1c[nH]c2ccccc12)C(=O)N[C@@H](CCSC)C(=O)N[C@@H](CC(=O)O)C(=O)N[C@@H](Cc1ccccc1)C(N)=O` [sincalide], the “DILI +VE (5-8), DILI -VE (-4)” value (in vivo) is listed as “-VE” and the DILI severity category (in vivo) is listed as “vNo-DILI-Concern”.
For `CO[C@H]1C[C@@H]2CC[C@@H](C)[C@@](O)(O2)C(=O)C(=O)N2CCCC[C@H]2C(=O)O[C@H]([C@H](C)C[C@@H]2CC[C@@H](O)[C@H](OC)C2)CC(=O)[C@H](C)/C=C(\C)[C@@H](O)[C@@H](OC)C(=O)[C@H](C)C[C@H](C)/C=C/C=C/C=C/1C` [sirolimus], the “DILI +VE (5-8), DILI -VE (-4)” value [1] is listed as “+VE” and the DILI severity category [2] is listed as “vLess-DILI-Concern”.
For `N[C@@H](CC(=O)N1CCn2c(nnc2C(F)(F)F)C1)Cc1cc(F)c(F)cc1F` [sitagliptin], the “DILI +VE (5-8), DILI -VE (-4)” value [1] is given as “+VE” and the DILI severity category [2] is given as “vLess-DILI-Concern”.
For `O=C([O-])O.[Na+]` [sodium bicarbonate], the “DILI +VE (5-8), DILI -VE (-4)” value (in vivo) is given as “-VE”.
For `CC(O)C(=O)[O-].[Na+]` (stereo not shown) [sodium lactate], the “DILI +VE (5-8), DILI -VE (-4)” value (in vivo) is listed as “-VE” and the DILI severity category (in vivo) is listed as “vNo-DILI-Concern”.
For `O=S([O-])([O-])=S.[Na+].[Na+]` [sodium thiosulfate], the “DILI +VE (5-8), DILI -VE (-4)” value (in vivo) is given as “-VE” and the DILI severity category (in vivo) is given as “vNo-DILI-Concern”.
In the case of `O=C(O)[C@@H](S)[C@@H](S)C(=O)O` [succimer], the “DILI +VE (5-8), DILI -VE (-4)” value [1] is listed as “+VE” and the DILI severity category [2] is listed as “vLess-DILI-Concern”.
For `C[N+](C)(C)CCOC(=O)CCC(=O)OCC[N+](C)(C)C` [succinylcholine], the “DILI +VE (5-8), DILI -VE (-4)” value [1] is listed as “-VE” and the DILI severity category [2] is listed as “vNo-DILI-Concern”.
In the case of `CCCCCCCCNC(C)C(O)c1ccc(SC(C)C)cc1` (stereo not shown) [sulcotidil], the “DILI +VE (5-8), DILI -VE (-4)” value (in vivo) is listed as “+VE” and the DILI severity category (in vivo) is listed as “vMost-DILI-Concern”.
In the case of `NC(=O)NS(=O)(=O)c1ccc(N)cc1` [sulfacarbamide], the “DILI +VE (5-8), DILI -VE (-4)” value [1] is given as “+VE” and the DILI severity category [2] is given as “vMost-DILI-Concern”.
In the case of `Nc1ccc(S(=O)(=O)Nc2ncccn2)cc1` [sulfadiazine], the “DILI +VE (5-8), DILI -VE (-4)” value [1] is given as “+VE” and the DILI severity category [2] is given as “vLess-DILI-Concern”.
In the case of `Nc1ccc(S(=O)(=O)Nc2nccs2)cc1` [sulfathiazole], the “DILI +VE (5-8), DILI -VE (-4)” value [1] is given as “+VE” and the DILI severity category [2] is given as “vMost-DILI-Concern”.
For `CN1CC(=O)N2[C@H](c3ccc4c(c3)OCO4)c3[nH]c4ccccc4c3C[C@@H]2C1=O` [tadalafil], the “DILI +VE (5-8), DILI -VE (-4)” value [1] is listed as “-VE” and the DILI severity category [2] is listed as “Ambiguous DILI-concern”.
In the case of `CC[C@@H](c1cccc(O)c1)[C@@H](C)CN(C)C` [tapentadol], the “DILI +VE (5-8), DILI -VE (-4)” value [1] is listed as “-VE” and the DILI severity category [2] is listed as “vNo-DILI-Concern”.
In the case of `CCCCCNC(=N)N/N=C/c1c[nH]c2ccc(OC)cc12` [tegaserod], the “DILI +VE (5-8), DILI -VE (-4)” value [1] is listed as “-VE” and the DILI severity category [2] is listed as “Ambiguous DILI-concern”.
In the case of `COc1cc([C@@H]2c3cc4c(cc3[C@@H](O[C@@H]3O[C@@H]5CO[C@@H](c6cccs6)O[C@H]5[C@H](O)[C@H]3O)[C@H]3COC(=O)[C@H]23)OCO4)cc(OC)c1O` [teniposide], the “DILI +VE (5-8), DILI -VE (-4)” value [1] is listed as “+VE” and the DILI severity category [2] is listed as “vLess-DILI-Concern”.
For `COc1cc2c(cc1OC)C1CC(=O)C(CC(C)C)CN1CC2` (stereo not shown) [tetrabenazine], the “DILI +VE (5-8), DILI -VE (-4)” value [1] is given as “-VE” and the DILI severity category [2] is given as “Ambiguous DILI-concern”.
For `C[C@H](O)[C@H](O)[C@H]1CNc2nc(N)[nH]c(=O)c2N1` [tetrahydrobiopterin], the “DILI +VE (5-8), DILI -VE (-4)” value [1] is listed as “-VE” and the DILI severity category [2] is listed as “vNo-DILI-Concern”.
In the case of `O=C1CCC(N2C(=O)c3ccccc3C2=O)C(=O)N1` (stereo not shown) [thalidomide], the “DILI +VE (5-8), DILI -VE (-4)” value [1] is given as “+VE” and the DILI severity category [2] is given as “vLess-DILI-Concern”.
In the case of `c1ccc2[nH]c(-c3cscn3)nc2c1` [thiabendazole], the “DILI +VE (5-8), DILI -VE (-4)” value [1] is given as “+VE” and the DILI severity category [2] is given as “vMost-DILI-Concern”.
For `S=P(N1CC1)(N1CC1)N1CC1` [thiotepa], the “DILI +VE (5-8), DILI -VE (-4)” value [1] is listed as “+VE” and the DILI severity category [2] is listed as “vLess-DILI-Concern”.
In the case of `Cc1ccsc1C(=CCCN1CCC[C@@H](C(=O)O)C1)c1sccc1C` [tiagabine], the “DILI +VE (5-8), DILI -VE (-4)” value [1] is listed as “-VE” and the DILI severity category [2] is listed as “Ambiguous DILI-concern”.
In the case of `CN(C)c1cc(NC(=O)CNC(C)(C)C)c(O)c2c1C[C@H]1C[C@H]3[C@H](N(C)C)C(O)=C(C(N)=O)C(=O)[C@@]3(O)C(O)=C1C2=O` [tigecycline], the “DILI +VE (5-8), DILI -VE (-4)” value [1] is listed as “-VE” and the DILI severity category [2] is listed as “Ambiguous DILI-concern”.
For `Cc1cc(Br)c(O)c2ncccc12` [tilbroquinol], the “DILI +VE (5-8), DILI -VE (-4)” value [1] is listed as “+VE” and the DILI severity category [2] is listed as “vMost-DILI-Concern”.
